Test results as given in article PMC6032158, “Structure–Activity Relationship of Piplartine and Synthetic Analogues against Schistosoma mansoni and Cytotoxicity to Mammalian Cells” (International Journal of Molecular Sciences, 2018).

Key:
[1] = system: murine fibroblast (NIH-3T3) cells; assay: MTT cytotoxicity assay in murine fibroblasts; format: cell-based
Procedure: Next, the medium was removed and various concentrations (25–800 µg/mL) of samples reconstituted in 3% DMSO were applied. DMSO (3%) was used as a control. The plates were incubated for 24 h. Next, 15 µL of MTT solution (5 mg/mL in phosphate buffer) was added to each well and the plates were incubated for 2 h. Medium was discarded and 100 µL of DMSO was added to each well. Absorbance was determined using a spectrophotometer with a microplate reader at 595 nm (Molecular Devices Corporation, Sunnyvale, CA, USA).

[2] = system: 49-day-old S. mansoni adult worms; assay: In vitro experiments with adult worms of S. mansoni (mortality, motor activity); format: cell-based, Schistosoma mansoni; conditions: for Dead Worms (%) F / Motor Activity Reduction (%) Significant F / Motor Activity Reduction (%) Slight F: female worms; for Dead Worms (%) M / Motor Activity Reduction (%) Significant M / Motor Activity Reduction (%) Slight M: male worms
How it was run: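 BH-strain worm pairs recovered from hamsters 49 days post-infection, washed in RPMI 1640 with penicillin, streptomycin and amphotericin B, and cultured as mated pairs with or without drug for 96 h. Motor activity changes and death were scored by microscopy.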

[3] = system: mouse BALB/cN macrophage (J774A.1) cell line; assay: Cell viability by flow cytometry in macrophages; conditions: 24 h, 25, 100 and 400 µg/mL, vs DMEM control

O=C(/C=C/c1ccc([N+](=O)[O-])cc1)N(C(=O)NC1CCCCC1)C1CCCCC1 [Compound 6B]
effect on NIH-3T3 cell viability (in words) ([1]; MTT, 24 h exposure, 25 to 800 µg/mL): did not exert significant effects on mammalian cell viability at the tested concentrations | Emax at 800 µg/mL ([1]; Mus musculus, NIH3T3, 24 h, decrease in cell viability at the maximum concentration tested (800 μg/mL), NIH-3T3, 24 h): < 50% | Dead Worms (%) F ([2]; 5 µM, 14 h): 0% | Motor Activity Reduction (%) Significant F ([2]; 5 µM, 14 h): 0% | Motor Activity Reduction (%) Slight F ([2]; 5 µM, 14 h): 0% | Dead Worms (%) M ([2]; 5 µM, 14 h): 0% | Motor Activity Reduction (%) Significant M ([2]; 5 µM, 14 h): 0% | Motor Activity Reduction (%) Slight M ([2]; 5 µM, 14 h): 0% | Dead Worms (%) F ([2]; 5 µM, 48 h): 0% | Motor Activity Reduction (%) Significant F ([2]; 5 µM, 48 h): 0% | Motor Activity Reduction (%) Slight F ([2]; 5 µM, 48 h): 0% | Dead Worms (%) M ([2]; 5 µM, 48 h): 0% | Motor Activity Reduction (%) Significant M ([2]; 5 µM, 48 h): 0% | Motor Activity Reduction (%) Slight M ([2]; 5 µM, 48 h): 0% | Dead Worms (%) F ([2]; 5 µM, 72 h): 0% | Motor Activity Reduction (%) Significant F ([2]; 5 µM, 72 h): 0% | Motor Activity Reduction (%) Slight F ([2]; 5 µM, 72 h): 0% | Dead Worms (%) M ([2]; 5 µM, 72 h): 0% | Motor Activity Reduction (%) Significant M ([2]; 5 µM, 72 h): 0% | Motor Activity Reduction (%) Slight M ([2]; 5 µM, 72 h): 0% | Dead Worms (%) F ([2]; 5 µM, 96 h): 0% | Motor Activity Reduction (%) Significant F ([2]; 5 µM, 96 h): 0% | Motor Activity Reduction (%) Slight F ([2]; 5 µM, 96 h): 0% | Dead Worms (%) M ([2]; 5 µM, 96 h): 0% | Motor Activity Reduction (%) Significant M ([2]; 5 µM, 96 h): 0% | Motor Activity Reduction (%) Slight M ([2]; 5 µM, 96 h): 0% | Dead Worms (%) F ([2]; 10 µM, 24 h): 0% | Motor Activity Reduction (%) Significant F ([2]; 10 µM, 24 h): 0% | Motor Activity Reduction (%) Slight F ([2]; 10 µM, 24 h): 0% | Dead Worms (%) M ([2]; 10 µM, 24 h): 0% | Motor Activity Reduction (%) Significant M ([2]; 10 µM, 24 h): 0% | Motor Activity Reduction (%) Slight M ([2]; 10 µM, 24 h): 0% | Dead Worms (%) F ([2]; 10 µM, 48 h): 0% | Motor Activity Reduction (%) Significant F ([2]; 10 µM, 48 h): 0% | Motor Activity Reduction (%) Slight F ([2]; 10 µM, 48 h): 0% | Dead Worms (%) M ([2]; 10 µM, 48 h): 0% | Motor Activity Reduction (%) Significant M ([2]; 10 µM, 48 h): 0% | Motor Activity Reduction (%) Slight M ([2]; 10 µM, 48 h): 0% | Dead Worms (%) F ([2]; 10 µM, 72 h): 0% | Motor Activity Reduction (%) Significant F ([2]; 10 µM, 72 h): 0% | Motor Activity Reduction (%) Slight F ([2]; 10 µM, 72 h): 0% | Dead Worms (%) M ([2]; 10 µM, 72 h): 0% | Motor Activity Reduction (%) Significant M ([2]; 10 µM, 72 h): 0% | Motor Activity Reduction (%) Slight M ([2]; 10 µM, 72 h): 0% | Dead Worms (%) F ([2]; 10 µM, 96 h): 0% | Motor Activity Reduction (%) Significant F ([2]; 10 µM, 96 h): 0% | Motor Activity Reduction (%) Slight F ([2]; 10 µM, 96 h): 0% | Dead Worms (%) M ([2]; 10 µM, 96 h): 0% | Motor Activity Reduction (%) Significant M ([2]; 10 µM, 96 h): 0% | Motor Activity Reduction (%) Slight M ([2]; 10 µM, 96 h): 0% | Dead Worms (%) F ([2]; 25 µM, 24 h): 0% | Motor Activity Reduction (%) Significant F ([2]; 25 µM, 24 h): 0% | Motor Activity Reduction (%) Slight F ([2]; 25 µM, 24 h): 0% | Dead Worms (%) M ([2]; 25 µM, 24 h): 0% | Motor Activity Reduction (%) Significant M ([2]; 25 µM, 24 h): 0% | Motor Activity Reduction (%) Slight M ([2]; 25 µM, 24 h): 0% | Dead Worms (%) F ([2]; 25 µM, 48 h): 0% | Motor Activity Reduction (%) Significant F ([2]; 25 µM, 48 h): 0% | Motor Activity Reduction (%) Slight F ([2]; 25 µM, 48 h): 0% | Dead Worms (%) M ([2]; 25 µM, 48 h): 0% | Motor Activity Reduction (%) Significant M ([2]; 25 µM, 48 h): 0% | Motor Activity Reduction (%) Slight M ([2]; 25 µM, 48 h): 0% | Dead Worms (%) F ([2]; 25 µM, 72 h): 0% | Motor Activity Reduction (%) Significant F ([2]; 25 µM, 72 h): 0% | Motor Activity Reduction (%) Slight F ([2]; 25 µM, 72 h): 0% | Dead Worms (%) M ([2]; 25 µM, 72 h): 0% | Motor Activity Reduction (%) Significant M ([2]; 25 µM, 72 h): 0% | Motor Activity Reduction (%) Slight M ([2]; 25 µM, 72 h): 0% | Dead Worms (%) F ([2]; 25 µM, 96 h): 0% | Motor Activity Reduction (%) Significant F ([2]; 25 µM, 96 h): 0% | Motor Activity Reduction (%) Slight F ([2]; 25 µM, 96 h): 0% | Dead Worms (%) M ([2]; 25 µM, 96 h): 0% | Motor Activity Reduction (%) Significant M ([2]; 25 µM, 96 h): 0% | Motor Activity Reduction (%) Slight M ([2]; 25 µM, 96 h): 0% | Dead Worms (%) F ([2]; 50 µM, 24 h): 0% | Motor Activity Reduction (%) Significant F ([2]; 50 µM, 24 h): 0% | Motor Activity Reduction (%) Slight F ([2]; 50 µM, 24 h): 0% | Dead Worms (%) M ([2]; 50 µM, 24 h): 0% | Motor Activity Reduction (%) Significant M ([2]; 50 µM, 24 h): 0% | Motor Activity Reduction (%) Slight M ([2]; 50 µM, 24 h): 0% | Dead Worms (%) F ([2]; 50 µM, 48 h): 0% | Motor Activity Reduction (%) Significant F ([2]; 50 µM, 48 h): 0% | Motor Activity Reduction (%) Slight F ([2]; 50 µM, 48 h): 0% | Dead Worms (%) M ([2]; 50 µM, 48 h): 0% | Motor Activity Reduction (%) Significant M ([2]; 50 µM, 48 h): 0% | Motor Activity Reduction (%) Slight M ([2]; 50 µM, 48 h): 0% | Dead Worms (%) F ([2]; 50 µM, 72 h): 0% | Motor Activity Reduction (%) Significant F ([2]; 50 µM, 72 h): 0% | Motor Activity Reduction (%) Slight F ([2]; 50 µM, 72 h): 0% | Dead Worms (%) M ([2]; 50 µM, 72 h): 0% | Motor Activity Reduction (%) Significant M ([2]; 50 µM, 72 h): 0% | Motor Activity Reduction (%) Slight M ([2]; 50 µM, 72 h): 0% | Dead Worms (%) F ([2]; 50 µM, 96 h): 0% | Motor Activity Reduction (%) Significant F ([2]; 50 µM, 96 h): 0% | Motor Activity Reduction (%) Slight F ([2]; 50 µM, 96 h): 0% | Dead Worms (%) M ([2]; 50 µM, 96 h): 0% | Motor Activity Reduction (%) Significant M ([2]; 50 µM, 96 h): 0% | Motor Activity Reduction (%) Slight M ([2]; 50 µM, 96 h): 0% | activity against S. mansoni adult worms (in words) ([2]; analogues 50, 25, 10 and 5 μM, piplartine 5 and 10 μM, up to 96 h): did not present biological activity against the S. mansoni parasite | effect on J774A.1 cell viability (in words) [3]: did not reduce cell viability at the same concentrations
